Test results: patent US11045833B2, “Task specific ionic liquid-impregnated polymeric surface coatings for antibacterial, antifouling, and metal scavenging activity” (Massachusetts Institute of Technology, priority 2017, dated 2021)

Assays:
[1] = Desorption of polymer and ionic liquid from coated glass slides in water; format: physicochemical; conditions: after a day in water
[2] = Ionic liquid leaching from ionogel by ICP mass spectrometry; format: physicochemical; conditions: IL trapped in ionogel
[3] = tested on: Pseudomonas aeruginosa; test: Biofilm formation in flow cell with CVD polymer coating, inoculated medium flowed through; format: cell-based; conditions: IL encapsulated in CVD polymer film on flow cell; medium inoculated with P. aeruginosa
From the text: Chemical vapor deposition (CVD) was used to cross-link a polymer and bind it to a flow cell surface using in a custom built vacuum reactor (Sharon Vacuum) previously described (Martin, T. P. et al. Biomaterials 2007, 28, 909-915; and Ozaydin-Ince, G. et al. J. Vac. Sci. Technol., A 2009, 27, 1135-1143). During CVD depositions, tert-butyl peroxide (TBPO) and monomers N,N-dimethylacrylamide ([…], FIG. 2A) and di(ethylene glycol) divinyl ether (DEGDVE, FIG. 2B) were introduced into the CVD reactor through mass flow controllers (1479 MFC, MKS Instruments). The grafting agent was trichlorovinylsilane (FIG. 2C), which covalently grafted the polymer network onto the surface via silanization. DMMA, which was the repeating unit in the polymer chains, was introduced into the chamber at a rate of about 2.8 mL/min. The crosslinker DEGDVE, which linked different polymer chains, was introduced into the chamber at a rate of 0.3 mL/min. The initiator TBPO was introduced into the chamber at a rate of about 1.0 mL/min. The substrate temperature was about 30° C., and the chamber pressure was about 400 mTorr. The ionic liquid was N-hexylethylenediaminium bis([…])amide, [HHex][Tf2N] (FIG. 1).
A flow cell had the bottom side CVD coated by the polymer as described in Example 2. One cell had the polymer film impregnated by an IL ([HHex][Tf2N]). […]

## N-hexylethylenediaminium bis(trifluoroethanesulfonyl)amide [[HHex][Tf2N]]
[1]
  desorption of polymer and ionic liquid: have not desorbed
[2]
  ionic liquid leaching over time: lack of ionic liquid leaching over time
[3]
  biofilm growth: no biofilm growth
